Laboratory results reported in US6911474B2, “Methods, compounds, and compositions for reducing body fat and modulating fatty acid metabolism” (The Regents of the University of California, priority 2001, dated 2005).
Ends that are not written are not given here.

What was measured:
[1] = Food intake in capsaicin-treated rats (sensory fibers destroyed); type: in vivo, rat; conditions: OEA 10 mg per kg, i.p., FIG. 6a,c
Text: Chemicals. FAEs and [^2H4] FAEs were synthesized in the laboratory (Giuffrida et al., “Lipid Second Messengers” (ed. Laychock, S. G. & Rubin, R. P.) 113-133 (CRC Press LLC, Boca Raton, Fla., 1998)); 1,2-dioleyl-sn-glycero-phosphoethanolamine-N-oleyl was purchased from Avanti Polar Lipids (Alabaster, Ala.); SR141716A was provided by RBI (Natick, Mass.) as part of the Chemical Synthesis Program of the NIMH (N01MH30003); SR144528 was a generous gift of Sanofi Recherche; all other drugs were from Tocris (Ballwin, Mo.) or Sigma (Saint Louis, Mo.). FAE were dissolved in dimethylsulphoxide (DMSO) and administered in 70% DMSO in sterile saline (acute treatments) or 5% Tween 80/5% propylenglycol in sterile saline (subchronic treatments) (1 ml per kg, i.p.). Capsaicin was administered in 10% Tween 80/10% ethanol/80% saline; SR141716A, SR144528, CCK-8 and CP-93129 in 5% Tween 80/5% propylenglycol/90% saline (1 ml per kg, i.p.).
These findings support the hypothesis that OEA causes hypophagia by acting at a peripheral site, and that sensory fibers are required for this effect.

[2] = Acute food intake in 24-h food-deprived rats after i.p. administration; type: in vivo, rat; conditions: 24-h food-deprived rats, 15 min before food presentation, FIG. 4a,b
Protocol: Feeding experiments. Acute experiments. Food intake was measured in 24-h food-deprived rats (Navarro et al., J. Neurochem., 67:1982-1991 (1996)), administering drugs 15 min before food presentation. Subchronic experiments. Ad libitum fed rats received vehicle injections for three days. On day four, the animals were divided in two equal groups and gave them daily injections of vehicle or OEA (5 mg per kg at 1900 h) for 7 consecutive days, while measuring body weight, food intake and water intake.
The effects of systemically administered OEA on food intake in rats can be assessed using a 24 h fast. […] To define the selectivity of this response, various OEA analogs were evaluated for their ability to produce hypophagia.

Soleus muscle = test: [14C]oleate oxidation to CO2 in soleus muscle; type: cell-based, rat; conditions: soleus muscle, structure-activity relationship; FIG. 8
[3] = Conditioned taste aversion; type: in vivo, rat; conditions: OEA 20 mg per kg, i.p.; lithium chloride 0.4 M, 7.5 ml per kg; FIG. 4c
Protocol: Conditioned taste aversion. Rats were water-deprived for 24 h and then accustomed to drink from a graded bottle during a 30-min test period for four days. On day five, water was substituted with a 0.1% saccharin solution and, 30 min later, the animals received injections of vehicle, OEA (20 mg per kg) or lithium chloride (0.4 M, 7.5 ml per kg). During the following two days, water consumption was recorded over 30-min test periods. The animals were then presented with water or saccharin, and drinking measured.

Compound	food intake response of capsaicin-treated rats [1]	suppression of food intake (hypophagia) [2]	mimicking of the effect of OEA on skeletal muscle fatty acid oxidation (Soleus muscle)	conditioned taste aversion [3]
O=c1ccc2[nH]cc(C3=CCNCC3)c2[nH]1 [CP-93129]	responded normally			
cholecystokinin-8 (DYMGWMDF; ends and bridges not checked; UniProt P06307 96-103, looked up) [CCK-8, peripherally administered cholecystokinin-8]	failed to respond			
CCCCCCCCCCCCCCCC(=O)NCCO [Palmitylethanolamide, palmitylethanolamide]		active but significantly less potent than OEA	only partially	
[Cl-].[Li+] [lithium chloride]				readily provoked
CCCCC/C=C\C/C=C\C/C=C\C/C=C\CCCC(=O)NCCO [Anandamide, arachidonylethanolamide, reference compound]		no effect	not	
CCCCCCCC/C=C\CCCCCCCC(=O)O [oleic acid, reference compound]		no effect	not	
